Experimental data published in ChEMBL document CHEMBL3045777, “Response of selected horseweed (Conyza canadensis (L.) Cronq.) populations to glyphosate” (2004).

Experiments:
Erigeron canadensis [1] = test: Herbicidal activity against compound-resistant Conyza canadensis (horseweed) isolate 1 under greenhouse condition at 9 kg ae/ha measured 14 days post treatment relative to control; type: functional
Erigeron canadensis [2] = test: Herbicidal activity against Conyza canadensis (horseweed) under greenhouse condition at 0.05 kg ae/ha measured 14 days post treatment relative to control; type: functional
Erigeron canadensis [3] = test: Herbicidal activity against compound-resistant Conyza canadensis (horseweed) isolate 2 under greenhouse condition at 1.68 kg ae/ha measured 14 days post treatment relative to control; type: functional
Erigeron canadensis [4] = test: Herbicidal activity against compound-sensitive Conyza canadensis (horseweed) under greenhouse condition at 1.68 kg ae/ha measured 7 days post treatment relative to control; type: functional
Erigeron canadensis [5] = test: Herbicidal activity against compound-resistant Conyza canadensis (horseweed) isolate 1 under greenhouse condition at 1.25 kg ae/ha measured 21 days post treatment relative to control; type: functional
Erigeron canadensis [6] = test: Herbicidal activity against compound-resistant Conyza canadensis (horseweed) isolate 1 under greenhouse condition at 0.45 kg ae/ha measured 21 days post treatment relative to control; type: functional
Erigeron canadensis [7] = test: Herbicidal activity against compound-sensitive Conyza canadensis (horseweed) under greenhouse condition at 3.36 kg ae/ha measured 14 days post treatment relative to control; type: functional
Erigeron canadensis [8] = test: Herbicidal activity against compound-resistant Conyza canadensis (horseweed) isolate 1 under greenhouse condition at 9 kg ae/ha measured 7 days post treatment relative to control; type: functional
Erigeron canadensis [9] = test: Herbicidal activity against compound-resistant Conyza canadensis (horseweed) isolate 1 under greenhouse condition at 1.25 kg ae/ha measured 7 days post treatment relative to control; type: functional
Erigeron canadensis [10] = test: Herbicidal activity against compound-resistant Conyza canadensis (horseweed) isolate 1 under greenhouse condition at 0.84 kg ae/ha measured 7 days post treatment relative to control; type: functional
Erigeron canadensis [11] = test: Herbicidal activity against compound-sensitive Conyza canadensis (horseweed) under greenhouse condition at 0.84 kg ae/ha measured 21 days post treatment relative to control; type: functional
Erigeron canadensis [12] = test: Herbicidal activity against compound-sensitive Conyza canadensis (horseweed) under greenhouse condition at 2.52 kg ae/ha measured 14 days post treatment relative to control; type: functional
Erigeron canadensis [13] = test: Herbicidal activity against compound-sensitive Conyza canadensis (horseweed) under greenhouse condition assessed as fresh weight at 9 kg ae/ha measured 21 days post treatment relative to untreated control
Erigeron canadensis [14] = test: Herbicidal activity against compound-resistant Conyza canadensis (horseweed) isolate 2 under greenhouse condition assessed as fresh weight at 9 kg ae/ha measured 21 days post treatment relative to untreated control
Erigeron canadensis [15] = test: Herbicidal activity against compound-resistant Conyza canadensis (horseweed) isolate 2 under greenhouse condition assessed as fresh weight at 0.84 kg ae/ha measured 21 days post treatment relative to untreated control
Erigeron canadensis [16] = test: Herbicidal activity against compound-resistant Conyza canadensis (horseweed) isolate 2 under greenhouse condition assessed as fresh weight at 0.45 kg ae/ha measured 21 days post treatment relative to untreated control

## O=C(O)CNCP(=O)(O)O [GLYPHOSATE]
Erigeron canadensis [1]
  Activity: 80%
Erigeron canadensis [2]
  Activity: 16%
Erigeron canadensis [3]
  Activity: 44%
Erigeron canadensis [4]
  Activity: 63%
Erigeron canadensis [5]
  Activity: 30%
Erigeron canadensis [6]
  Activity: 11%
Erigeron canadensis [7]
  Activity: 95%
Erigeron canadensis [8]
  Activity: 80%
Erigeron canadensis [9]
  Activity: 28%
Erigeron canadensis [10]
  Activity: 20%
Erigeron canadensis [11]
  Activity: 88%
Erigeron canadensis [12]
  Activity: 99%
Erigeron canadensis [13]
  level, % of control: 1%
Erigeron canadensis [14]
  level, % of control: 12%
Erigeron canadensis [15]
  level, % of control: 86%
Erigeron canadensis [16]
  level, % of control: 94%
